Data reported in patent US12495798B2, “Nicotinamide compound and herbicidal composition comprising compound” (KOREA RESEARCH INSTITUTE OF CHEMICAL TECHNOLOGY, priority 2019, dated 2025).

Experiments:
Format in all cases: in vivo
velvetleaf [1] = assay: Herbicidal activity test against upland field weeds (foliar treatment test); set-up: key to Foliar treatment herbicidal activity, velvet leaf: 0 (no control); 100 (complete control); conditions: 50 g ai/ha; for Foliar treatment herbicidal activity, velvet leaf: scale 0-100; for pest or weed control at 50 g/ha: Abutilon theophrasti, scale 0-100, read-out: Foliar treatment herbicidal activity, velvet leaf
Outline: (§1)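 Greenhouse-grown plants (30±5 °C, 14/10 h light/dark) foliar hand-sprayed with compound in 50% acetone, 0.1% Tween-20 at 50 or 75 g a.i./ha. Control visually scored 0 (none) to 100 (complete) versus untreated after 14 days, or 21 days if needed.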

sorghum = assay: as above; set-up: key to Foliar treatment herbicidal activity, Sorghum: 0 (no control); 100 (complete control); conditions: 50 g ai/ha, scale 0-100; for plant injury at 50 g/ha: Sorghum
Outline: as §1

indian jointvetch = assay: as above; set-up: key to Foliar treatment herbicidal activity, Indian jointvetch: 0 (no control); 100 (complete control); conditions: 50 g ai/ha, scale 0-100
Outline: as §1

quack grass = assay: as above; set-up: key to Foliar treatment herbicidal activity, quack grass: 0 (no control); 100 (complete control); conditions: 50 g ai/ha, scale 0-100
Outline: as §1

cocklebur [2] = assay: as above; set-up: key to Foliar treatment herbicidal activity, Cocklebur: 0 (no control); 100 (complete control); conditions: 50 g ai/ha, scale 0-100; for pest or weed control at 50 g/ha: Xanthium strumarium
Outline: as §1

cocklebur [3] = assay: Herbicidal activity test against upland field weeds (soil treatment test); set-up: key to Soil treatment herbicidal activity, Cocklebur: 0 (no control); 100 (complete control); conditions: 50 g ai/ha, scale 0 (no control) to 100 (complete control)
Outline: (§2)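 Pre-emergence soil surface spray, day after sowing, into sandy loam pots with fertilizer; compounds at 50 or 75 g a.i./ha in 50% acetone, 0.1% Tween-20. Greenhouse at 30±5 °C, 14/10 h light/dark; visual control rated 0–100 against untreated after 14 days (21 if needed).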

bindweed = assay: Herbicidal activity test against upland field weeds (foliar treatment test); set-up: key to Foliar treatment herbicidal activity, Bindweed: 0 (no control); 100 (complete control); conditions: 50 g ai/ha, scale 0-100
Outline: as §1

barnyard grass = assay: Herbicidal activity test against upland field weeds (soil treatment test); set-up: key to Soil treatment herbicidal activity, barnyard grass: 0 (no control); 100 (complete control); conditions: 50 g ai/ha, scale 0 (no control) to 100 (complete control)
Outline: as §2

velvetleaf [4] = assay: as above; set-up: key to Soil treatment herbicidal activity, velvet leaf: 0 (no control); 100 (complete control); conditions: 50 g ai/ha, scale 0 (no control) to 100 (complete control)
Outline: as §2

soybean = assay: Phytotoxicity test for field crops (soil treatment test); set-up: key: 0 (no harm); 9 (complete withered)
Procedure: (§3) Experimental Example 4: Phytotoxicity Test for Field Crops (Soil Treatment Test)
(§4) Soil treatment was performed for sown crops and weeds in a square plastic pot having a surface area of 50 cm^2 filled with sterilized horticultural soil (pH 6.1, organic material 1.0%, clay 21%, silt 17%, sand 52%). As a fertilizer per pot, 0.5 g of horticultural mixed fertilizer (N:P:K=17:21:17) was treated by mixing with soil. Five kinds of crops such as rice, wheat, corn, soybean, and cotton were sown in each pot. One day after sowing, test compound solutions were made by diluting with the diluent (33% acetone, 0.1% Tween-20) so that the final treatment amount of the test compounds was 19˜300 g a.i./ha. The prepared test compound solutions were treated using a spray booth (SB6-016) at a treatment amount of 100 ml per 1 m^2 of treatment area. The treated crops were managed in greenhouse conditions (average temperature 30±5° C., light/dark=14/10 hours). External symptoms and phytotoxicity were visually investigated 10 and 20 days after treatment. In the evaluation of the phytotoxicity for the crop, the grade of 0 (no harm) to 9 (complete withered) was used. The results of Table 10 were obtained by evaluating phytotoxicity value to the untreated control.

cotton = assay: as above; set-up: key: 0 (no harm); 9 (complete withered)
Procedure: as §3, §4

wheat = assay: as above; set-up: key: 0 (no harm); 9 (complete withered)
Procedure: as §3, §4

corn = assay: as above; set-up: key: 0 (no harm); 9 (complete withered)
Procedure: as §3, §4

rice = assay: as above; set-up: key: 0 (no harm); 9 (complete withered)
Procedure: as §3, §4

[5] = 50 g ai/ha, Soybean (20 days after treatment)
[6] = 50 g ai/ha, Cotton (10 days after treatment)
[7] = 50 g ai/ha, Cotton (20 days after treatment)
[8] = 100 g ai/ha, Cotton (10 days after treatment)
[9] = 100 g ai/ha, Cotton (20 days after treatment)
[10] = 50 g ai/ha, Wheat (10 days after treatment)
[11] = 50 g ai/ha, Wheat (20 days after treatment)
[12] = 100 g ai/ha, Wheat (10 days after treatment)
[13] = 100 g ai/ha, Wheat (20 days after treatment)
[14] = 50 g ai/ha, Corn (10 days after treatment)
[15] = 50 g ai/ha, Corn (20 days after treatment)
[16] = 100 g ai/ha, Corn (10 days after treatment)
[17] = 100 g ai/ha, Corn (20 days after treatment)
[18] = 50 g ai/ha, Rice (10 days after treatment)
[19] = 50 g ai/ha, Rice (20 days after treatment)
[20] = 100 g ai/ha, Rice (10 days after treatment)
[21] = 100 g ai/ha, Rice (20 days after treatment)

COC(=O)OC(C)N(C(=O)c1ccc(C(F)(F)F)nc1COCc1nnn(C)n1)c1nnnn1C (stereo not drawn) [Compound No. 4-4, methyl(1-(N-(1-methyl-1H-tetrazol-5-yl)-2-(((2-methyl-2H-tetrazol-5-yl)methoxy)methyl)-6-(trifluoromethyl)nicotinamido)ethyl)carbonate]
Foliar treatment herbicidal activity, velvet leaf (velvetleaf [1]): 100
Foliar treatment herbicidal activity, Sorghum (sorghum): 100
Foliar treatment herbicidal activity, Indian jointvetch (indian jointvetch): 100
Foliar treatment herbicidal activity, quack grass (quack grass): 0
Foliar treatment herbicidal activity, Cocklebur (cocklebur [2]): 98
Soil treatment herbicidal activity, Cocklebur (cocklebur [3]): 0
Foliar treatment herbicidal activity, Bindweed (bindweed): 100
Soil treatment herbicidal activity, barnyard grass (barnyard grass): 0
Soil treatment herbicidal activity, velvet leaf (velvetleaf [4]): 100

CCOC(=O)OC(C)n1nnn(C)c1=NC(=O)c1ccc(C(F)(F)F)nc1CSCc1nnn(C)n1 (stereo not drawn) [Compound No. 4-10, ethyl (1-(4-methyl-5-((2-((((2-methyl-2H-tetrazol-5-yl)methyl)thio)methyl)-6-(trifluoromethyl)nicotinoyl)imino)-4,5-dihydro-1H-tetrazol-1-yl)ethyl)carbonate]
Foliar treatment herbicidal activity, velvet leaf (velvetleaf [1]): 100
Foliar treatment herbicidal activity, Sorghum (sorghum): 100
Foliar treatment herbicidal activity, Indian jointvetch (indian jointvetch): 98
Foliar treatment herbicidal activity, quack grass (quack grass): 0
Soil treatment phytotoxicity, Soybean (soybean; [5]): 1
Soil treatment phytotoxicity, Soybean (soybean; 100 g ai/ha, Soybean (20 days after treatment)): 3
Soil treatment phytotoxicity, Cotton (cotton; [6]): 0
Soil treatment phytotoxicity, Cotton (cotton; [7]): 1
Soil treatment phytotoxicity, Cotton (cotton; [8]): 0
Soil treatment phytotoxicity, Cotton (cotton; [9]): 2
Soil treatment phytotoxicity, Wheat (wheat; [10]): 0
Soil treatment phytotoxicity, Wheat (wheat; [11]): 0
Soil treatment phytotoxicity, Wheat (wheat; [12]): 0
Soil treatment phytotoxicity, Wheat (wheat; [13]): 0
Soil treatment phytotoxicity, Corn (corn; [14]): 0
Soil treatment phytotoxicity, Corn (corn; [15]): 0
Soil treatment phytotoxicity, Corn (corn; [16]): 0
Soil treatment phytotoxicity, Corn (corn; [17]): 0
Soil treatment phytotoxicity, Rice (rice; [18]): 0
Soil treatment phytotoxicity, Rice (rice; [19]): 0
Soil treatment phytotoxicity, Rice (rice; [20]): 0
Soil treatment phytotoxicity, Rice (rice; [21]): 0
Foliar treatment herbicidal activity, Cocklebur (cocklebur [2]): 100
Foliar treatment herbicidal activity, Bindweed (bindweed): 100
Soil treatment herbicidal activity, barnyard grass (barnyard grass): 100
Soil treatment herbicidal activity, velvet leaf (velvetleaf [4]): 100

CCOC(=O)OC(C)N(C(=O)c1ccc(C(F)(F)F)nc1COCc1nnn(C)n1)c1nnnn1C (stereo not drawn) [Compound No. 4-8, ethyl(1-(N-(1-methyl-1H-tetrazol-5-yl)-2-(((2-methyl-2H-tetrazol-5-yl)methoxy)methyl)-6-(trifluoromethyl)nicotinamido)ethyl)carbonate]
Foliar treatment herbicidal activity, velvet leaf (velvetleaf [1]): 100
Foliar treatment herbicidal activity, Sorghum (sorghum): 70
Foliar treatment herbicidal activity, Indian jointvetch (indian jointvetch): 100
Foliar treatment herbicidal activity, quack grass (quack grass): 0
Foliar treatment herbicidal activity, Cocklebur (cocklebur [2]): 100
Soil treatment herbicidal activity, Cocklebur (cocklebur [3]): 0
Foliar treatment herbicidal activity, Bindweed (bindweed): 100
Soil treatment herbicidal activity, barnyard grass (barnyard grass): 100
Soil treatment herbicidal activity, velvet leaf (velvetleaf [4]): 100

COc1nc(COCc2nc(C(F)(F)F)ccc2C(=O)Nc2nnnn2C)nn1C [Compound No. 2-129, 2-(((5-methoxy-1-methyl-1H-1,2,4-triazol-3-yl)methoxy)methyl)-N-(1-methyl-1H-tetrazol-5-yl)-6-(trifluoromethyl)nicotinamide]
pest or weed control at 50 g/ha (velvetleaf [1]): 70%
plant injury at 50 g/ha (sorghum): 40%
pest or weed control at 50 g/ha (indian jointvetch): 60%
Foliar treatment herbicidal activity, quack grass (quack grass): 0
Soil treatment phytotoxicity, Soybean (soybean; 50 g ai/ha, Soybean (10 days after treatment)): 0
Soil treatment phytotoxicity, Soybean (soybean; [5]): 0
Soil treatment phytotoxicity, Cotton (cotton; [6]): 0
Soil treatment phytotoxicity, Cotton (cotton; [7]): 0
Soil treatment phytotoxicity, Cotton (cotton; [8]): 1
Soil treatment phytotoxicity, Cotton (cotton; [9]): 5
Soil treatment phytotoxicity, Wheat (wheat; [10]): 0
Soil treatment phytotoxicity, Wheat (wheat; [11]): 0
Soil treatment phytotoxicity, Wheat (wheat; [12]): 0
Soil treatment phytotoxicity, Wheat (wheat; [13]): 0
Soil treatment phytotoxicity, Corn (corn; [14]): 0
Soil treatment phytotoxicity, Corn (corn; [15]): 0
Soil treatment phytotoxicity, Corn (corn; [16]): 0
Soil treatment phytotoxicity, Corn (corn; [17]): 0
Soil treatment phytotoxicity, Rice (rice; [18]): 5
Soil treatment phytotoxicity, Rice (rice; [19]): 6
Soil treatment phytotoxicity, Rice (rice; [20]): 5
Soil treatment phytotoxicity, Rice (rice; [21]): 7
pest or weed control at 50 g/ha (cocklebur [2]): 70%
pest or weed control at 50 g/ha (bindweed): 40%
Soil treatment herbicidal activity, barnyard grass (barnyard grass): 0

Cn1nnc(CSCc2nc(C(F)(F)F)ccc2C(=O)Nc2nnnn2C)n1 [Compound No. 2-102, N-(1-methyl-1H-tetrazol-5-yl)-2-((((2-methyl-2H-tetrazol-5-yl)methyl)thio)methyl)-6-(trifluoromethyl)nicotinamide]
pest or weed control at 50 g/ha (velvetleaf [1]): 80%
plant injury at 50 g/ha (sorghum): 70%
pest or weed control at 50 g/ha (indian jointvetch): 98%
Foliar treatment herbicidal activity, quack grass (quack grass): 0
Foliar treatment herbicidal activity, Cocklebur (cocklebur [2]): 100
Foliar treatment herbicidal activity, Bindweed (bindweed): 100
pest or weed control at 50 g/ha (barnyard grass; Echinochloa crus-galli): 98%
Soil treatment herbicidal activity, velvet leaf (velvetleaf [4]): 100

Cn1nnc(COc2nc(C(F)(F)F)ccc2C(=O)Nc2nnnn2C)n1 [Compound No. 2-1, N-(1-methyl-1H-tetrazol-5-yl)-2-((2-methyl-2H-tetrazol-5-yl)methoxy)-6-(trifluoromethyl)nicotinamide]
pest or weed control at 50 g/ha (velvetleaf [1]): 30%
Foliar treatment herbicidal activity, Sorghum (sorghum): 0
pest or weed control at 50 g/ha (indian jointvetch): 60%
Foliar treatment herbicidal activity, quack grass (quack grass): 0
Soil treatment phytotoxicity, Cotton (cotton; [6]): 1
Soil treatment phytotoxicity, Cotton (cotton; [7]): 2
Soil treatment phytotoxicity, Cotton (cotton; [8]): 4
Soil treatment phytotoxicity, Cotton (cotton; [9]): 7
Soil treatment phytotoxicity, Wheat (wheat; [10]): 0
Soil treatment phytotoxicity, Wheat (wheat; [11]): 0
Soil treatment phytotoxicity, Wheat (wheat; [12]): 0
Soil treatment phytotoxicity, Wheat (wheat; [13]): 0
Soil treatment phytotoxicity, Corn (corn; [14]): 0
Soil treatment phytotoxicity, Corn (corn; [15]): 0
Soil treatment phytotoxicity, Corn (corn; [16]): 0
Soil treatment phytotoxicity, Corn (corn; [17]): 0
Soil treatment phytotoxicity, Rice (rice; [18]): 3
Soil treatment phytotoxicity, Rice (rice; [19]): 3
Soil treatment phytotoxicity, Rice (rice; [20]): 5
Soil treatment phytotoxicity, Rice (rice; [21]): 5
pest or weed control at 50 g/ha (cocklebur [2]): 60%
Soil treatment herbicidal activity, Cocklebur (cocklebur [3]): 0
pest or weed control at 50 g/ha (bindweed): 60%
Soil treatment herbicidal activity, barnyard grass (barnyard grass): 0
Soil treatment herbicidal activity, velvet leaf (velvetleaf [4]): 0

Cn1nnc(CS(=O)(=O)Cc2nc(C(F)(F)F)ccc2C(=O)Nc2nnnn2C)n1 [Compound No. 2-105, N-(1-methyl-1H-tetrazol-5-yl)-2-((((2-methyl-2H-tetrazol-5-yl)methyl)sulfonyl)methyl)-6-(trifluoromethyl)nicotinamide]
pest or weed control at 50 g/ha (velvetleaf [1]): 90%
plant injury at 50 g/ha (sorghum): 20%
pest or weed control at 50 g/ha (indian jointvetch): 95%
Foliar treatment herbicidal activity, quack grass (quack grass): 0
pest or weed control at 50 g/ha (cocklebur [2]): 98%
pest or weed control at 50 g/ha (cocklebur [3]; Xanthium strumarium): 98%
pest or weed control at 50 g/ha (bindweed): 80%
Soil treatment herbicidal activity, barnyard grass (barnyard grass): 0
Soil treatment herbicidal activity, velvet leaf (velvetleaf [4]): 100
